Laboratory results: patent publication US20230303557A1, “CRYSTALLINE FORM OF TLR8 AGONIST” (CHIA TAI TIANQING PHARMACEUTICAL GROUP CO., LTD., priority 2020, published 2023)
Structures can show the parent of a compound that is named as a salt. Blank lines part the entries; values can stand above or below the compound they belong to.

Legend:
[1] = High-humidity (25° C./92.5 RH) stability testing; format: physicochemical; conditions: for Appearance / Content / Enantiomer / Total impurity content / Water: 25° C./92.5RH
Method: 3) Testing for the Effect of Humidity
Each sample was placed in an open low-form weighing bottle and tested under high-humidity conditions (25° C./92.5 RH).

Photostability testing = format: physicochemical; conditions: for Appearance / Content / Enantiomer / Total impurity content / Water: photostability
Text: 1) Photostability Testing
Two test samples (one as a 5-day test sample, the other as a 10-day test sample) and two controls (one as a 5-day control, the other as a 10-day control) were used. The test samples were spread as thin layers on clean watch glasses and covered with quartz glass covers. The controls were packaged in the same manner as the test samples except that the watch glasses were covered with aluminum film.
Test conditions: a photostability tester.

[2] = Accelerated stability testing (40±2° C./75±5% RH); format: physicochemical
Method: Inner packaging: a double-layer medical low-density polyethylene bag; outer packaging: an aluminum foil bag.
Test conditions: 40±2° C./75±5% RH.

[3] = High-temperature (60° C.) stability testing; format: physicochemical
Method: 2) Testing for the Effect of Temperature
Each sample was placed on an open watch glass and tested under high-temperature conditions (60° C.).

human TLR7 = human TLR7 (Homo sapiens (Human), UniProt Q9NYK1); assay: HEK-Blue hTLR7 SEAP reporter agonist assay; format: cell-based; conditions: HEK-Blue hTLR7 cells, 24 hours, SEAP OD650
Text: (§1) Experimental Example 1: Screening for In Vitro Receptor Binding Activity of Human Toll-Like Receptor 7 (TLR7) and Human Toll-Like Receptor 8 (TLR8)
(§2) The HEK-Blue™ hTLR7 (catalog No.: hkb-htlr7) and HEK-Blue™ hTLR8 (catalog No.: hkb-htlr8) cell lines used in this experiment were purchased from InvivoGen. The two cell lines were constructed by a human embryonic kidney 293 cell line stably co-transfecting hTLR7 or hTLR8 and inducing expression of Secreted Alkaline Phosphatase (SEAP) reporter gene, wherein SEAP reporter gene was regulated by an IFN-β promoter. […]
(§3) 2. […] The cells were counted and the cell suspension was adjusted to 500,000 cells/mL with the culture medium. […]
(§4) 4. Activity assay on the compound: 20 µL of the induced cell supernatant from each well was added to a cell culture plate containing 180 µL of QUANTI-Blue™ reagent, and after incubation at 37° C. for 1 hour, the optical density absorbance at 650 nm (OD650) was assayed for each well using a multi-functional microplate reader.
(§5) 5. Activity assay on the cells: luciferase signal (RLU) was detected using a multi-functional microplate reader as per the process described in the instructions of ATPlite 1 Step.
(§6) 6. Data analysis: compound activity: OD650 values were analyzed using a GraphPad Prism software and the dose-response curves of the compound were fitted to calculate EC50 values (half maximal effect concentration) for the compound.

[4] = Pharmacokinetic study in mice; format: in vivo; conditions: mouse, plasma
Method: Experimental Example 3: Pharmacokinetic Study in Mice
This experiment was intended to evaluate the pharmacokinetic behavior of the compound after a single intravenous injection or intragastric administration in mice.
The concentration of the test compound in plasma was determined by high performance liquid chromatography-tandem mass spectrometry (LC-MS/MS). The retention times of the compound and internal standard, chromatogram acquisitions and integrals of chromatograms were processed using the software Analyst (Applied Biosystems), and the data statistics were processed using the software Watson LIMS (Thermo Fisher Scientific) or Analyst (Applied Biosystems).
The plasma concentrations were processed using a non-compartmental model of WinNonlin™ Version 6.3 (Pharsight, Mountain View, CA), a pharmacokinetic software, and the pharmacokinetic parameters were calculated using a linear-log trapezoidal method.
The related pharmacokinetic parameters in the mice at 1 mg/Kg intravenous injection and 5 mg/Kg oral intragastric administration of the hydrochloride of the compound of formula (I) are shown in Table 4 below.

human TLR8 = human TLR8 (Homo sapiens (Human), UniProt Q9NR97); assay: HEK-Blue hTLR8 SEAP reporter agonist assay; format: cell-based; conditions: HEK-Blue hTLR8 cells, 24 hours, SEAP OD650
Text: as §1, §2, §3, §4, §5, §6

[5] = Day 5, control group (aluminum film)
[6] = Day 10, control group (aluminum film)
[7] = oral intragastric administration 5 mg/Kg

Sequence of human TLR7 (Q9NYK1 27-1049): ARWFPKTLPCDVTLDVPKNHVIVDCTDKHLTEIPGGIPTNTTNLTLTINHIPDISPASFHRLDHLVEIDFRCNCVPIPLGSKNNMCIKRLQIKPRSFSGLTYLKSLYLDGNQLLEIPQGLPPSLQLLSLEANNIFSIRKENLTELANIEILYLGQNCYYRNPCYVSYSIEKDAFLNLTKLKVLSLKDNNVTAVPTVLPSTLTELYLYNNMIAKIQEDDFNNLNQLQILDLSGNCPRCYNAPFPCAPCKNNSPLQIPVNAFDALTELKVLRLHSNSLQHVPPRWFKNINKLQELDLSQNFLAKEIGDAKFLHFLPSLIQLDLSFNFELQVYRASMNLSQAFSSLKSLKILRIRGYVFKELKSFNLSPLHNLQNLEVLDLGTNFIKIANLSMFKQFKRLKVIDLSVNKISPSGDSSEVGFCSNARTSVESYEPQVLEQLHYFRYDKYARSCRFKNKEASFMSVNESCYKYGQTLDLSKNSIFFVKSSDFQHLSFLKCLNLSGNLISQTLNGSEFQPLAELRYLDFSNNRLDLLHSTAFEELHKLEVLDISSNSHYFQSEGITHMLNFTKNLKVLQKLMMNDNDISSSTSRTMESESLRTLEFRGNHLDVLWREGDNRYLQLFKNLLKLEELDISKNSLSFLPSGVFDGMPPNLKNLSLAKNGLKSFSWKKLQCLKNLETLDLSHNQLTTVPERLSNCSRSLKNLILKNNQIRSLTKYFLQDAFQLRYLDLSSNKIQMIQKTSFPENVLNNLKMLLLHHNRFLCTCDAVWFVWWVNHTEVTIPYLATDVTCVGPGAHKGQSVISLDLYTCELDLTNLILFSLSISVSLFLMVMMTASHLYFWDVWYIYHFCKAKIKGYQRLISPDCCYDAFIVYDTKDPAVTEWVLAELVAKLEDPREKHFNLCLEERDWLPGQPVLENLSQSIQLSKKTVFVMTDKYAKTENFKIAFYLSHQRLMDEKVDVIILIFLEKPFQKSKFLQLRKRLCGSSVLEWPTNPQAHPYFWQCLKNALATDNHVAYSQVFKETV
Sequence of human TLR8 (Q9NR97 27-1041): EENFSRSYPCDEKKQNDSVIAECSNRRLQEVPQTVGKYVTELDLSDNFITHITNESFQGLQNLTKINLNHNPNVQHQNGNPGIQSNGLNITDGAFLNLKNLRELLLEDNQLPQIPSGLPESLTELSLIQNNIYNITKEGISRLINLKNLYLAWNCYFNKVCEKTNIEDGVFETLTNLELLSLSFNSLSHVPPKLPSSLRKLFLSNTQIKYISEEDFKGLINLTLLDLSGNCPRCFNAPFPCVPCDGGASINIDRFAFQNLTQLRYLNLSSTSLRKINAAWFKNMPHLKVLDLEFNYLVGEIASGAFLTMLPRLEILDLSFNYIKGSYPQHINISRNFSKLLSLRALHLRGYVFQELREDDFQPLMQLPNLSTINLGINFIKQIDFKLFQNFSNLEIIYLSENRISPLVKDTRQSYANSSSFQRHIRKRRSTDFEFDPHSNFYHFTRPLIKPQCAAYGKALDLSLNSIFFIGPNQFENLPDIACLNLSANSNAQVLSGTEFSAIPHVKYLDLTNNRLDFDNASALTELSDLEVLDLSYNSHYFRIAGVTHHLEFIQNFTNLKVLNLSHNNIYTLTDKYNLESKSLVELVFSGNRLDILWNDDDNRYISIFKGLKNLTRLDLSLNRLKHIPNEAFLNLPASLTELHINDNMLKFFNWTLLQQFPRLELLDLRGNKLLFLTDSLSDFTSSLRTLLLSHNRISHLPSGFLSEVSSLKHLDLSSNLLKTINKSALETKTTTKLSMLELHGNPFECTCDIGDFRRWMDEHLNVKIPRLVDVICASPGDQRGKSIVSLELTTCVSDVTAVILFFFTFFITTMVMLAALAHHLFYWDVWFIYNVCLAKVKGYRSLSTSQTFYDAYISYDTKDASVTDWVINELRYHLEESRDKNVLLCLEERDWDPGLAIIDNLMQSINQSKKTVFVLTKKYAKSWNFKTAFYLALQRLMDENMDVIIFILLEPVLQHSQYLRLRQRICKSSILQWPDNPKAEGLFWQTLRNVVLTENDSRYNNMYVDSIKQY

High-humidity stability (conclusion) ([1]; 25° C./92.5 RH, 5-day, 10-day and 30-day): good high-humidity stability
Appearance ([1]; Day 5): Off-white powder
Content ([1]; Day 5): 98.8%
Enantiomer ([1]; Day 5): 0.35%
Total impurity content ([1]; Day 5): <0.05%
Water ([1]; Day 5): 0.29%
Appearance ([1]; Day 10): Off-white powder
Content ([1]; Day 10): 99.4%
Enantiomer ([1]; Day 10): 0.35%
Total impurity content ([1]; Day 10): <0.05%
Water ([1]; Day 10): 0.29%
Appearance ([1]; Day 30): Off-white powder
Content ([1]; Day 30): 98.7%
Enantiomer ([1]; Day 30): 0.35%
Total impurity content ([1]; Day 30): <0.05%
Water ([1]; Day 30): 0.30%
Appearance ([1]; initial value): Off-white powder
Content ([1]; initial value): 98.3%
Enantiomer ([1]; initial value): 0.34%
Total impurity content ([1]; initial value): <0.05%
Water ([1]; initial value): 0.19%
Photostability (conclusion) (Photostability testing; lighting conditions, 5-day and 10-day): good photostability
Appearance (Photostability testing; [5]): Off-white powder
Content (Photostability testing; [5]): 98.7%
Enantiomer (Photostability testing; [5]): 0.35%
Total impurity content (Photostability testing; [5]): <0.05%
Water (Photostability testing; [5]): 0.25%
Appearance (Photostability testing; Day 5, test group): Off-white powder
Content (Photostability testing; Day 5, test group): 98.8%
Enantiomer (Photostability testing; Day 5, test group): 0.34%
Total impurity content (Photostability testing; Day 5, test group): <0.05%
Water (Photostability testing; Day 5, test group): 0.24%
Appearance (Photostability testing; [6]): Off-white powder
Content (Photostability testing; [6]): 99.1%
Enantiomer (Photostability testing; [6]): 0.36%
Total impurity content (Photostability testing; [6]): <0.05%
Water (Photostability testing; [6]): 0.25%
Appearance (Photostability testing; Day 10, test group): Off-white powder
Content (Photostability testing; Day 10, test group): 98.6%
Enantiomer (Photostability testing; Day 10, test group): 0.34%
Total impurity content (Photostability testing; Day 10, test group): <0.05%
Water (Photostability testing; Day 10, test group): 0.25%
Appearance (Photostability testing; initial value): Off-white powder
Content (Photostability testing; initial value): 98.3%
Enantiomer (Photostability testing; initial value): 0.34%
Total impurity content (Photostability testing; initial value): <0.05%
Water (Photostability testing; initial value): 0.19%
Appearance ([2]; Month 1): Off-white powder
Content ([2]; Month 1): 98.9%
Total impurity content ([2]; Month 1): <0.05%
Water ([2]; Month 1): 0.30%
Appearance ([2]; Month 2): Off-white powder
Content ([2]; Month 2): 99.5%
Total impurity content ([2]; Month 2): <0.05%
Water ([2]; Month 2): 0.31%
Appearance ([2]; Month 3): Off-white powder
Content ([2]; Month 3): 98.8%
Enantiomer ([2]; Month 3): 0.32%
Total impurity content ([2]; Month 3): <0.05%
Water ([2]; Month 3): 0.28%
XRPD ([2]; Month 3): Crystal form A
Appearance ([2]; Month 6): Off-white powder
Content ([2]; Month 6): 99.3%
Enantiomer ([2]; Month 6): 0.34%
Total impurity content ([2]; Month 6): <0.05%
Water ([2]; Month 6): 0.34%
Appearance ([2]; initial value): Off-white powder
Content ([2]; initial value): 98.3%
Enantiomer ([2]; initial value): 0.34%
Total impurity content ([2]; initial value): <0.05%
Water ([2]; initial value): 0.19%
XRPD ([2]; initial value): Crystal form A
High-temperature stability (conclusion) ([3]; 5-day, 10-day and 30-day): good high-temperature stability
Appearance ([3]; Day 5): Off-white powder
Content ([3]; Day 5): 99.1%
Enantiomer ([3]; Day 5): 0.35%
Total impurity content ([3]; Day 5): <0.05%
Water ([3]; Day 5): 0.25%
Appearance ([3]; Day 10): Off-white powder
Content ([3]; Day 10): 99.0%
Enantiomer ([3]; Day 10): 0.37%
Total impurity content ([3]; Day 10): <0.05%
Water ([3]; Day 10): 0.24%
Appearance ([3]; Day 30): Off-white powder
Content ([3]; Day 30): 98.2%
Enantiomer ([3]; Day 30): 0.34%
Total impurity content ([3]; Day 30): <0.05%
Water ([3]; Day 30): 0.26%
Appearance ([3]; initial value): Off-white powder
Content ([3]; initial value): 98.3%
Enantiomer ([3]; initial value): 0.34%
Total impurity content ([3]; initial value): <0.05%
Water ([3]; initial value): 0.19%
SMILES: CCCC[C@](C)(Cc1ncn[nH]1)Nc1nc(N)nc2cnccc12
Stability under accelerated conditions (conclusion, XRPD) ([2]; Month 3): stays stable under accelerated conditions

EC50 (human TLR7): 33.3 µM
bioavailability ([4]; 5 mg/Kg oral vs 1 mg/Kg intravenous, read-out: Bioavailability (F%)): 27.7%
AUC(0-t) ([4]; intravenous injection 1 mg/Kg): 0.45 µM·h
clearance ([4]; intravenous injection 1 mg/Kg): 90.2 mL/min/kg
Vd ([4]; intravenous injection 1 mg/Kg, read-out: Vdss): 1.75 L/kg
half-life ([4]; intravenous injection 1 mg/Kg, read-out: t½ (converted)): 15 min
AUC(0-t) [4, 7]: 0.624 µM·h
Cmax [4, 7]: 421 nM
Tmax [4, 7]: 30 min
EC50 (human TLR8): 0.003 µM
SMILES: CCCC[C@](C)(Cc1ncn[nH]1)Nc1nc(N)nc2cnccc12 [Hydrochloride of compound of formula (I)]
